Some test systems named below: SK-MEL-5; NCI-H23; T47D; HCT-116; OVCAR-4; NCI/ADR-RES; HL-60; SF-268; MDA-MB-231; MDA-MB-435; SR; ACHN; IGROV-1; U-251; HCC 2998; HCT-15; OVCAR-8; HOP-62; M14; SNB-75.
What all share (assay): NCI anticancer screen, dose series, 48 h

The text below walks through data of ChEMBL document CHEMBL1201862, “PubChem BioAssay data set” (2004).

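How tested: cells in 96-well plates exposed to compound for 48 hours at five concentrations. GI50 is the concentration that inhibits growth by half.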 Active and inactive are the calls of the source. Cut-off read from the data, not from the text of the source: active = GI50 up to about 1.1 µM and inactive = higher. A value given as a limit tells only on which side of the number the result lay.

As to `Oc1ccc(C(c2ccc(O)cc2)c2ccc(O)cc2)cc1`, the GI50 was 13.8 µM (inactive) with SK-MEL-5; 19.2 µM (inactive) in the experiment on NCI-H23; 9.27 µM (inactive) in the experiment on T47D; 16.8 µM (inactive) with HCT-116; 9.71 µM (inactive) in the experiment with OVCAR-4; 18.9 µM (inactive) with NCI/ADR-RES. Besides, the GI50 in the experiment on HL-60 is 18.9 µM (inactive); in the experiment on SF-268 it was 32.1 µM (inactive); in the experiment with MDA-MB-231 it was 16.3 µM (inactive); in the experiment on MDA-MB-435 it was 19.7 µM (inactive); with SR it was 37.1 µM (inactive); in the experiment on ACHN it was 27.3 µM (inactive). Further, the GI50 in the experiment with IGROV-1 is 14.3 µM (inactive); with U-251, 23.2 µM (inactive); with HCC 2998, 18 µM (inactive); in the experiment on HCT-15, 23.9 µM; in the experiment with OVCAR-8, 15.6 µM (inactive).

Turning to `CCCCCc1nnc(NS(=O)(=O)c2ccc(NC(=O)OCC(C)C)cc2)s1`, the GI50 is 27.1 µM (inactive) with SK-MEL-5; 53.2 µM (inactive) in the experiment with NCI-H23; 44.5 µM (inactive) in the experiment with HOP-62; 34.2 µM (inactive) with T47D; 41.9 µM (inactive) with M14; 26.2 µM (inactive) in the experiment on HCT-116. Besides, the GI50 with OVCAR-4 is 26.1 µM (inactive); with NCI/ADR-RES it was 39.4 µM (inactive); with HL-60, 31.2 µM (inactive); in the experiment with SF-268 it was 41.9 µM (inactive); in the experiment on MDA-MB-231, 36.2 µM (inactive); in the experiment with MDA-MB-435 it was 33.7 µM (inactive). Further, the GI50 was 16.4 µM (inactive) in the experiment with SR; 34.7 µM (inactive) in the experiment on ACHN; 25.7 µM (inactive) in the experiment on IGROV-1; 42.9 µM (inactive) with U-251; 36 µM with HCT-15; 32.2 µM (inactive) with OVCAR-8.

As to `O=S(=O)(O)c1cc(/N=N/c2cccc3ccccc23)c(O)c2ncccc12`, the GI50 in the experiment on SK-MEL-5 was 31.1 µM (inactive); with NCI-H23, 38.9 µM (inactive); in the experiment with HOP-62, > 100 µM (inactive); with T47D, 55.7 µM (inactive); in the experiment on M14 it was 47.8 µM (inactive); in the experiment on HCT-116, 34.9 µM (inactive). Further, the GI50 with OVCAR-4 was 46 µM (inactive); in the experiment with NCI/ADR-RES, 65.2 µM (inactive); in the experiment on HL-60 it was 37.8 µM (inactive); in the experiment with MDA-MB-231 it was > 100 µM (inactive); in the experiment with MDA-MB-435, > 100 µM (inactive); in the experiment on SR, 23.2 µM (inactive). The GI50 was 44 µM (inactive) in the experiment on ACHN; 60.3 µM (inactive) in the experiment with SNB-75; 29.3 µM (inactive) in the experiment on IGROV-1; 42 µM (inactive) in the experiment on U-251; 47.2 µM in the experiment with HCT-15; > 100 µM (inactive) in the experiment with OVCAR-8.

For `Cc1nn(CN2CCN(C)CC2)c(=S)n1/N=C/c1ccc(-c2ccc(Cl)cc2Cl)o1`, the GI50 was 43.3 µM (inactive) in the experiment on SK-MEL-5; 71.6 µM (inactive) in the experiment on NCI-H23; > 100 µM (inactive) in the experiment on HOP-62; 21.2 µM (inactive) in the experiment with T47D; > 100 µM (inactive) in the experiment with M14; 74.6 µM (inactive) in the experiment with HCT-116. Also, the GI50 was 37.4 µM (inactive) in the experiment on OVCAR-4; 62.7 µM (inactive) with NCI/ADR-RES; 32.7 µM (inactive) with HL-60; 92.5 µM (inactive) with SF-268; 63.8 µM (inactive) with MDA-MB-231; 36.1 µM (inactive) with MDA-MB-435. Moreover, the GI50 is 37 µM (inactive) in the experiment with SR; > 100 µM (inactive) in the experiment on ACHN; 81.8 µM (inactive) in the experiment with IGROV-1; 32.8 µM (inactive) in the experiment with U-251; > 100 µM (inactive) with HCC 2998; 47.2 µM in the experiment with HCT-15. For the same molecule, the GI50 in the experiment on OVCAR-8 is 51.3 µM (inactive).

`COC1CC2C=CC3C4OC2(/C(C)=C/C(C)C(C(C)O)OC1=O)C3C(O)C(C)C4OC(=O)c1ccc[nH]1` (centres undefined): the GI50 is 38.2 µM (inactive) with SK-MEL-5; > 100 µM (inactive) with NCI-H23; > 100 µM (inactive) in the experiment with HOP-62; > 100 µM (inactive) in the experiment with T47D; > 100 µM (inactive) in the experiment with M14; 49.3 µM (inactive) in the experiment with HCT-116. In addition, the GI50 in the experiment with OVCAR-4 was 74 µM (inactive); in the experiment on NCI/ADR-RES, 66.2 µM (inactive); in the experiment with HL-60 it was 16.6 µM (inactive); in the experiment on SF-268, > 100 µM (inactive); with MDA-MB-231 it was > 100 µM (inactive); with MDA-MB-435, 58.1 µM (inactive). Moreover, the GI50 is 26.5 µM (inactive) with SR; > 100 µM (inactive) with ACHN; > 100 µM (inactive) in the experiment with IGROV-1; 96.2 µM (inactive) with U-251; 74.6 µM (inactive) in the experiment with HCC 2998; 92.5 µM in the experiment with HCT-15. For the same molecule, the GI50 with OVCAR-8 is 48.9 µM (inactive).

As to `C(=N\c1nc2cc3sc(/N=C/c4ccccc4)nc3cc2s1)/c1ccccc1`, the GI50 in the experiment with SK-MEL-5 was 25.5 µM (inactive); in the experiment with NCI-H23, 39 µM (inactive); with HOP-62, > 68.2 µM (inactive); in the experiment with T47D, > 67.9 µM (inactive); in the experiment on M14, > 100 µM (inactive); in the experiment with HCT-116 it was 44 µM (inactive). Moreover, the GI50 is > 89.5 µM (inactive) in the experiment with OVCAR-4; > 80.4 µM (inactive) in the experiment on NCI/ADR-RES; > 100 µM (inactive) with SF-268; > 95.3 µM (inactive) in the experiment with MDA-MB-231; > 100 µM (inactive) in the experiment on MDA-MB-435; 10.6 µM (inactive) with SR. Moreover, the GI50 is 55.8 µM (inactive) in the experiment with ACHN; > 100 µM (inactive) in the experiment on SNB-75; > 63.2 µM (inactive) in the experiment with IGROV-1; > 94.6 µM (inactive) with U-251; 29.9 µM (inactive) in the experiment with HCC 2998; 46 µM in the experiment on HCT-15. The GI50 in the experiment with OVCAR-8 was > 66.2 µM (inactive).

On to `COC(=O)[C@@H]1[C@H](O)CC[C@H]2[C@@]1(C)CC[C@@H](C)[C@]2(COC(C)=O)CC(=O)c1ccoc1`, for which the GI50 is > 50 µM (inactive) in the experiment on SK-MEL-5; > 50 µM (inactive) in the experiment on NCI-H23; 28.8 µM (inactive) with T47D; > 50 µM (inactive) with M14; > 50 µM (inactive) in the experiment on HCT-116; 25.2 µM (inactive) in the experiment on OVCAR-4. Also, the GI50 in the experiment with NCI/ADR-RES was > 50 µM (inactive); with HL-60, 17 µM (inactive); in the experiment with SF-268 it was > 50 µM (inactive); in the experiment with MDA-MB-231 it was > 50 µM (inactive); in the experiment on MDA-MB-435, > 50 µM (inactive); in the experiment with SR it was > 50 µM (inactive). In addition, the GI50 in the experiment on ACHN was > 50 µM (inactive); in the experiment on SNB-75, > 50 µM (inactive); with IGROV-1, > 50 µM (inactive); in the experiment on U-251 it was > 50 µM (inactive); with HCT-15, more than 50 µM; in the experiment on OVCAR-8, > 50 µM (inactive).

As to `S=C1CSc2c(cnc3ccccc23)N1`, the GI50 with SK-MEL-5 is > 100 µM (inactive); with NCI-H23 it was > 100 µM (inactive); in the experiment on HOP-62, > 100 µM (inactive); in the experiment with T47D, 80.5 µM (inactive); in the experiment on M14 it was > 100 µM (inactive); in the experiment with HCT-116, > 100 µM (inactive). The GI50 in the experiment with OVCAR-4, in the experiment on NCI/ADR-RES, with HL-60, in the experiment on SF-268, with MDA-MB-231 and in the experiment on MDA-MB-435 was > 100 µM (inactive) throughout. For the same molecule, the GI50 was > 100 µM (inactive) with SR; > 100 µM (inactive) in the experiment on ACHN; 56.8 µM (inactive) with SNB-75; > 100 µM (inactive) with IGROV-1; > 100 µM (inactive) in the experiment with U-251; more than 100 µM with HCT-15. In the experiment with OVCAR-8, the GI50 is 65.9 µM (inactive).

As to `COc1cc2c(/C=C3/C(=O)Nc4ccc(Cl)cc43)c(Cl)[nH]c2cc1C`, the GI50 in the experiment on SK-MEL-5 was 0.592 µM (active); in the experiment on NCI-H23 it was 0.916 µM (active); in the experiment on HOP-62 it was 0.439 µM (active); in the experiment with T47D it was 4.39 µM (inactive); in the experiment with M14, 0.962 µM (active); with HCT-116 it was 0.794 µM (active). Further, the GI50 is 0.818 µM (active) in the experiment on OVCAR-4; 0.662 µM (active) in the experiment on NCI/ADR-RES; 0.366 µM (active) in the experiment on HL-60; 1.03 µM (active) with SF-268; 0.74 µM (active) in the experiment with MDA-MB-231; 0.201 µM (active) with MDA-MB-435. The GI50 in the experiment with SR is 0.32 µM (active); in the experiment on ACHN, 0.587 µM (active); in the experiment on SNB-75, 0.215 µM (active); with IGROV-1, 0.368 µM (active); in the experiment on U-251, 0.394 µM (active); with HCT-15 it was 0.449 µM. In the experiment on OVCAR-8, the GI50 was 1.73 µM (inactive).

Consider `Cc1c(O)nc(/C=C/C(=O)O)nc1C(=O)O`, for which the GI50 in the experiment on SK-MEL-5, in the experiment on NCI-H23, with HOP-62, in the experiment with T47D, with M14 and in the experiment on HCT-116 was > 100 µM (inactive) throughout. Also, the GI50 in the experiment with OVCAR-4, in the experiment with NCI/ADR-RES, in the experiment on HL-60, in the experiment on SF-268, in the experiment with MDA-MB-231 and with MDA-MB-435 was > 100 µM (inactive) in each case. Also, the GI50 was > 100 µM (inactive) in the experiment with SR; > 100 µM (inactive) with ACHN; > 100 µM (inactive) with SNB-75; > 100 µM (inactive) with IGROV-1; > 100 µM (inactive) in the experiment on U-251; more than 100 µM with HCT-15. In the experiment with OVCAR-8, the GI50 is > 100 µM (inactive).

Regarding `CCN(CC)C(=S)SS(=O)(=O)c1ccccc1C(=O)O`, the GI50 in the experiment on SK-MEL-5 is > 60.7 µM (inactive); in the experiment with NCI-H23, > 100 µM (inactive); in the experiment with HOP-62, > 100 µM (inactive); in the experiment on T47D, > 36 µM (inactive); in the experiment on M14, > 96.4 µM (inactive); in the experiment on HCT-116 it was > 96.6 µM (inactive). Besides, the GI50 with OVCAR-4 was > 100 µM (inactive); in the experiment with NCI/ADR-RES, > 100 µM (inactive); in the experiment with SF-268 it was 98.2 µM (inactive); in the experiment with MDA-MB-231, > 100 µM (inactive); in the experiment with MDA-MB-435, > 100 µM (inactive); with SR it was 3.6 µM (inactive). Moreover, the GI50 was > 70.8 µM (inactive) in the experiment with ACHN; > 89.1 µM (inactive) in the experiment with SNB-75; > 100 µM (inactive) in the experiment with IGROV-1; 99.8 µM (inactive) in the experiment with U-251; > 100 µM (inactive) with HCC 2998; more than 100 µM in the experiment on HCT-15. Besides, the GI50 in the experiment with OVCAR-8 is > 100 µM (inactive).
